Laboratory results from ChEMBL document CHEMBL1138438, “Structural-activity relationship study of highly-functionalized imidazolines as potent inhibitors of nuclear transcription factor-kappaB mediated IL-6 production” (Bioorg Med Chem, 2009).

What was measured:
[1] = system: HeLa; assay: Cell cycle arrest in TNF-alpha-stimulated human HeLa cells transfected with NFkappaB-Luc assessed as accumulation at diploid G1 phase at 5 uM after 8 hrs by using propidium iodide staining by FACS analysis; type: functional
[2] = Inhibition of NF-kappaB-mediated gene transcription expressed in TNF-alpha-stimulated human HeLa cells co-transfected with renilla luciferase-TK gene preincubated for 30 mins before TNFalpha challenge measured after 8 hrs by dual-glo luciferase reporter gene assay; type: cell-based
[3] = system: HeLa; assay: Cell cycle arrest in human HeLa cells transfected with NFkappaB-Luc assessed as accumulation at diploid stage at 20 uM after 8 hrs by using propidium iodide staining by FACS analysis; type: functional
[4] = system: HeLa; assay: Cell cycle arrest in TNF-alpha-stimulated human HeLa cells transfected with NFkappaB-Luc assessed as accumulation at total S phase at 5 uM after 8 hrs by using propidium iodide staining by FACS analysis; type: functional
[5] = system: HeLa; assay: Cell cycle arrest in human HeLa cells transfected with NFkappaB-Luc assessed as accumulation at diploid G2 phase at 20 uM after 8 hrs by using propidium iodide staining by FACS analysis; type: functional
[6] = Cytotoxicity against human whole blood lymphocytes assessed as survival cell count in millions at 3 uM after 24 hrs by trypan blue staining-based hemocytometry
[7] = system: HeLa; assay: Cell cycle arrest in TNF-alpha-stimulated human HeLa cells transfected with NFkappaB-Luc assessed as accumulation at diploid G2 phase at 20 uM after 8 hrs by using propidium iodide staining by FACS analysis; type: functional
[8] = system: HeLa; assay: Effect on cell cycle arrest in TNF-alpha-stimulated human HeLa cells transfected with NFkappaB-Luc assessed as total background cell aggregate and debris level at 0.5 uM after 8 hrs by using propidium iodide staining by FACS analysis; type: functional
[9] = Cytotoxicity against human whole blood lymphocytes assessed as survival cell count in millions at 1 uM after 24 hrs by trypan blue staining-based hemocytometry
[10] = system: HeLa; assay: Cell cycle arrest in TNF-alpha-stimulated human HeLa cells transfected with NFkappaB-Luc assessed as accumulation at diploid G1 phase at 0.5 uM after 8 hrs by using propidium iodide staining by FACS analysis; type: functional
[11] = system: HeLa; assay: Effect on cell cycle arrest in TNF-alpha-stimulated human HeLa cells transfected with NFkappaB-Luc assessed as cell aggregate level at 1 uM after 8 hrs by using propidium iodide staining by FACS analysis; type: functional
[12] = system: HeLa; assay: Cell cycle arrest in TNF-alpha-stimulated human HeLa cells transfected with NFkappaB-Luc assessed as accumulation at diploid stage at 0.5 uM after 8 hrs by using propidium iodide staining by FACS analysis; type: functional
[13] = system: HeLa; assay: Effect on cell cycle arrest in TNF-alpha-stimulated human HeLa cells transfected with NFkappaB-Luc assessed as total background cell aggregate and debris level at 20 uM after 8 hrs by using propidium iodide staining by FACS analysis; type: functional
[14] = system: HeLa; assay: Cell cycle arrest in TNF-alpha-stimulated human HeLa cells transfected with NFkappaB-Luc assessed as accumulation at diploid G1 phase at 1 uM after 8 hrs by using propidium iodide staining by FACS analysis; type: functional
[15] = system: HeLa; assay: Cell cycle arrest in TNF-alpha-stimulated human HeLa cells transfected with NFkappaB-Luc assessed as accumulation at diploid stage at 10 uM after 8 hrs by using propidium iodide staining by FACS analysis; type: functional
[16] = system: HeLa; assay: Effect on cell cycle arrest in TNF-alpha-stimulated human HeLa cells transfected with NFkappaB-Luc assessed as cell aggregate level at 5 uM after 8 hrs by using propidium iodide staining by FACS analysis; type: functional
[17] = system: HeLa; assay: Cell cycle arrest in TNF-alpha-stimulated human HeLa cells transfected with NFkappaB-Luc assessed as accumulation at diploid stage at 0.1 uM after 8 hrs by using propidium iodide staining by FACS analysis; type: functional
[18] = system: HeLa; assay: Cell cycle arrest in TNF-alpha-stimulated human HeLa cells transfected with NFkappaB-Luc assessed as accumulation at G2/G1 phase at 5 uM after 8 hrs by using propidium iodide staining by FACS analysis; type: functional
[19] = system: HeLa; assay: Effect on cell cycle arrest in TNF-alpha-stimulated human HeLa cells transfected with NFkappaB-Luc assessed as cell debris level at 20 uM after 8 hrs by using propidium iodide staining by FACS analysis; type: functional
[20] = system: HeLa; assay: Cell cycle arrest in human HeLa cells transfected with NFkappaB-Luc assessed as accumulation at G2/G1 phase at 20 uM after 8 hrs by using propidium iodide staining by FACS analysis; type: functional
[21] = system: Blood; assay: Antiinflammatory activity in human whole blood assessed as inhibition of IL-1-beta-stimulated IL6 production preincubated 2 hrs before IL1-beta challenge measured after 18 hrs by ELISA; type: functional, tissue-based
[22] = system: HeLa; assay: Cell cycle arrest in TNF-alpha-stimulated human HeLa cells transfected with NFkappaB-Luc assessed as accumulation at total S phase at 0.5 uM after 8 hrs by using propidium iodide staining by FACS analysis; type: functional
[23] = system: HeLa; assay: Effect on cell cycle arrest in TNF-alpha-stimulated human HeLa cells transfected with NFkappaB-Luc assessed as total background cell aggregate and debris level at 0.1 uM after 8 hrs by using propidium iodide staining by FACS analysis; type: functional
[24] = system: Blood; assay: Antiinflammatory activity in human whole blood assessed as inhibition of IL-1-beta-stimulated IL6 production preincubated 2 hrs before IL1-beta challenge measured after 22 hrs by ELISA; type: functional, tissue-based
[25] = system: HeLa; assay: Effect on cell cycle arrest in TNF-alpha-stimulated human HeLa cells transfected with NFkappaB-Luc assessed as cell debris level at 0.05 uM after 8 hrs by using propidium iodide staining by FACS analysis; type: functional
[26] = system: HeLa; assay: Cell cycle arrest in TNF-alpha-stimulated human HeLa cells transfected with NFkappaB-Luc assessed as accumulation at diploid stage at 1 uM after 8 hrs by using propidium iodide staining by FACS analysis; type: functional
[27] = system: HeLa; assay: Effect on cell cycle arrest in human HeLa cells transfected with NFkappaB-Luc assessed as cell aggregate level at 20 uM after 8 hrs by using propidium iodide staining by FACS analysis; type: functional
[28] = system: HeLa; assay: Effect on cell cycle arrest in TNF-alpha-stimulated human HeLa cells transfected with NFkappaB-Luc assessed as cell debris level at 10 uM after 8 hrs by using propidium iodide staining by FACS analysis; type: functional
[29] = Cytotoxicity against IL-1-beta-stimulated human whole blood lymphocytes assessed as survival cell count in millions at 3 uM after 24 hrs by trypan blue staining-based hemocytometry
[30] = system: HeLa; assay: Cell cycle arrest in TNF-alpha-stimulated human HeLa cells transfected with NFkappaB-Luc assessed as accumulation at diploid S phase at 0.5 uM after 8 hrs by using propidium iodide staining by FACS analysis; type: functional
[31] = system: HeLa; assay: Effect on cell cycle arrest in TNF-alpha-stimulated human HeLa cells transfected with NFkappaB-Luc assessed as total background cell aggregate and debris level at 10 uM after 8 hrs by using propidium iodide staining by FACS analysis; type: functional
[32] = system: HeLa; assay: Cell cycle arrest in TNF-alpha-stimulated human HeLa cells transfected with NFkappaB-Luc assessed as accumulation at diploid S phase at 1 uM after 8 hrs by using propidium iodide staining by FACS analysis; type: functional

EC50 [2]: 4.67 µM
IC50 ([21]; read-out: IC50): 800 nM
IC50 ([21]; read-out: Log IC50 (converted)): 794 nM
IC50 [24]: 2500 nM
SMILES: CCOC(=O)[C@]1(c2ccccc2)N=C(c2ccccc2)N(Cc2ccccc2)[C@@H]1c1ccccc1 (racemic)
Activity [1]: 66.37%
Activity [3]: 100%
Activity [4]: 19.8%
Activity [5]: 13.33%
Activity [6]: 0.86 mL⁻¹
Activity [7]: 14.75%
Activity [8]: 1.29%
Activity [9]: 0.8 mL⁻¹
Activity [10]: 64.08%
Activity [11]: 0%
Activity [12]: 100%
Activity [13]: 5.59%
Activity [14]: 63.22%
Activity [15]: 100%
Activity [16]: 0%
Activity [17]: 100%
Activity [18]: 1.91%
Activity [19]: 14.57%
Activity [20]: 1.9%
Activity [21]: Dose-dependent effect
Activity [22]: 22.52%
Activity [23]: 0.58%
Activity [25]: 2.47%
Activity [26]: 100%
Activity [27]: 0%
Activity [28]: 15.28%
Activity [29]: 1.06 mL⁻¹
Activity [30]: 22.52%
Activity [31]: 6.27%
Activity [32]: 22.9%
